pIC50: −log10 of the molar value.
What was measured:
COX-2 = target: T1, COX-2 (Homo sapiens, UniProt P35354); test: biochemical
T1 sequence (P35354 18-604): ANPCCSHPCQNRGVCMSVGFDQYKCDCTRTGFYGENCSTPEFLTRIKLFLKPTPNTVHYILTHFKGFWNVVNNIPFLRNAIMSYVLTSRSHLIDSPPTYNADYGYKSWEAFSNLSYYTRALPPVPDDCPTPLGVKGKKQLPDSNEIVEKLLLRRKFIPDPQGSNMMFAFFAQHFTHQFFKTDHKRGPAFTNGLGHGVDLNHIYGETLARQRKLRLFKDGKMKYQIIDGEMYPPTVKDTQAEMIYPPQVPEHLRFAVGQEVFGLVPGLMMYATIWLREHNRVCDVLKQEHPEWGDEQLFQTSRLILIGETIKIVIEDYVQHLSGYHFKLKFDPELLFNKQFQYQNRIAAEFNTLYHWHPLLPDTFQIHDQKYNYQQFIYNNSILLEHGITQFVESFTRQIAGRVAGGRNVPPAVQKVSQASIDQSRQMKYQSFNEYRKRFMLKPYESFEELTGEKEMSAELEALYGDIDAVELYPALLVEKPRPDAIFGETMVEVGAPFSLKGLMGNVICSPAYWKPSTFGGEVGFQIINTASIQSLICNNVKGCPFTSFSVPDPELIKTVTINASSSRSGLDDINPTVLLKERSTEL
Protocol: A 0.1 gram sample of each test material was dissolved in 1 mL propanediol make a stock solution, each of which was subject to 1 to 2 serial dilutions using buffer for use in determining the IC50 Testing and analysis was performed in accordance with the protocol of the COX-2 Kt (Cayman Catalog #701080) (Cayman catalog #62160).

HDAC7 = target: T2, HDAC7 (Homo sapiens, UniProt Q8WUI4); conditions: reported, abcam; cited from earlier work
T2 sequence (Q8WUI4 1-952): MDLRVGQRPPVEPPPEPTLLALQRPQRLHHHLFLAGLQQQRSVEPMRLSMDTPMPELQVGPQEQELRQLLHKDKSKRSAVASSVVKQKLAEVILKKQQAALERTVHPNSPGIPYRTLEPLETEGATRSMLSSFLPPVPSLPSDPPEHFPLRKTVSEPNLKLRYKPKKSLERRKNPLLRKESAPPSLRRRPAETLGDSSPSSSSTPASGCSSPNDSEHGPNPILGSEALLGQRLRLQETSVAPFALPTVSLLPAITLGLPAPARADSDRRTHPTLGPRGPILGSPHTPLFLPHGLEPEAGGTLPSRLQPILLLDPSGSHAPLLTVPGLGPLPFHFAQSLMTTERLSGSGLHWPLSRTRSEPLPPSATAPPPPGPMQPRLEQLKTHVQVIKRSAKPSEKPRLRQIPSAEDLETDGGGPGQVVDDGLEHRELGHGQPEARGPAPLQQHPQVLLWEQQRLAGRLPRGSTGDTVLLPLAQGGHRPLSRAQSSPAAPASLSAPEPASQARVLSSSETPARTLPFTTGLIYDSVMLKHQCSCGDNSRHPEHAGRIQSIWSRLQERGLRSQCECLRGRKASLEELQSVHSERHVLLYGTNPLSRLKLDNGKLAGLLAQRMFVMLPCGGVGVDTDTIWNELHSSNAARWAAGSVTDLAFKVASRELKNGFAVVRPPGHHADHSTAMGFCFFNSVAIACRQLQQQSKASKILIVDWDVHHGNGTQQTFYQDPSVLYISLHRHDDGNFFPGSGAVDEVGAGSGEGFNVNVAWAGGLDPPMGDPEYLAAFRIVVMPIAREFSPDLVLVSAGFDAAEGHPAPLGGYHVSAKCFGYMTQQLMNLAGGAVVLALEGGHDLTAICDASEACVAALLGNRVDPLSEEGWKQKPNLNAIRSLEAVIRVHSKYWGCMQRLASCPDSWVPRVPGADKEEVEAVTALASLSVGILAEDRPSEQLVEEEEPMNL

HDAC2 = HDAC2 (Homo sapiens, UniProt Q92769); conditions: reported, abcam; cited from earlier work
HDAC6 = target: T3, HDAC6 (Homo sapiens, UniProt Q9UBN7); conditions: reported, abcam; cited from earlier work
T3 sequence (Q9UBN7 1-1215): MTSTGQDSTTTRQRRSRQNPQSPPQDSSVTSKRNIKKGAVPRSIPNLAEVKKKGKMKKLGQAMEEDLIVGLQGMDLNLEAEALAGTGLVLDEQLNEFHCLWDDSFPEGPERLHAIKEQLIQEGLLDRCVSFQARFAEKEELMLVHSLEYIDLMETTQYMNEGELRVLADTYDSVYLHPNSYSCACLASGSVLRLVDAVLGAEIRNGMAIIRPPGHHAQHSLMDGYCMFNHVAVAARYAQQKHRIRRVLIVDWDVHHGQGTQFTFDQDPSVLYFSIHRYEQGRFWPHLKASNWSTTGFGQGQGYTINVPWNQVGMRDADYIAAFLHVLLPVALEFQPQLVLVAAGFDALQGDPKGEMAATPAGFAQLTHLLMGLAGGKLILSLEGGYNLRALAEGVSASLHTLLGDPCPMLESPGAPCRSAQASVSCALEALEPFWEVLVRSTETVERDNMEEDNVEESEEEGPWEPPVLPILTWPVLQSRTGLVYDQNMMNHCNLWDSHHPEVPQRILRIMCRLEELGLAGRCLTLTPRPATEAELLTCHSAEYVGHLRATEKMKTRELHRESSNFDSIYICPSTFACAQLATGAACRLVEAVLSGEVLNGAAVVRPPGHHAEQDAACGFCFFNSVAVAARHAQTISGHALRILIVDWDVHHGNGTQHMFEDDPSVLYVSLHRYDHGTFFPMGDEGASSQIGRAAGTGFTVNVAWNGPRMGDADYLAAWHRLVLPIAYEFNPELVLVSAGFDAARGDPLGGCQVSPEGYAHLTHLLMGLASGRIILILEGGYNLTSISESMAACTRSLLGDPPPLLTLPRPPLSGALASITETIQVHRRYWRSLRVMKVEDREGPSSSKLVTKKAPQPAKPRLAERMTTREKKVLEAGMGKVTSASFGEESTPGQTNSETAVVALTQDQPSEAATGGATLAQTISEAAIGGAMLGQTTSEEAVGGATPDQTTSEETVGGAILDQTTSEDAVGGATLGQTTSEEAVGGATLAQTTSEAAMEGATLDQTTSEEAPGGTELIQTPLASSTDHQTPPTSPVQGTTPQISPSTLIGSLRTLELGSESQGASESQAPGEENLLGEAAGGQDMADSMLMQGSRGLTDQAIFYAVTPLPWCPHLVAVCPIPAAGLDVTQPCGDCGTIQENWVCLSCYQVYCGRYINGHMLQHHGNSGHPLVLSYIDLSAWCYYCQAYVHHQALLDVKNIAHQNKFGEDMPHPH

Sequence of HDAC2 (Q92769 whole entry): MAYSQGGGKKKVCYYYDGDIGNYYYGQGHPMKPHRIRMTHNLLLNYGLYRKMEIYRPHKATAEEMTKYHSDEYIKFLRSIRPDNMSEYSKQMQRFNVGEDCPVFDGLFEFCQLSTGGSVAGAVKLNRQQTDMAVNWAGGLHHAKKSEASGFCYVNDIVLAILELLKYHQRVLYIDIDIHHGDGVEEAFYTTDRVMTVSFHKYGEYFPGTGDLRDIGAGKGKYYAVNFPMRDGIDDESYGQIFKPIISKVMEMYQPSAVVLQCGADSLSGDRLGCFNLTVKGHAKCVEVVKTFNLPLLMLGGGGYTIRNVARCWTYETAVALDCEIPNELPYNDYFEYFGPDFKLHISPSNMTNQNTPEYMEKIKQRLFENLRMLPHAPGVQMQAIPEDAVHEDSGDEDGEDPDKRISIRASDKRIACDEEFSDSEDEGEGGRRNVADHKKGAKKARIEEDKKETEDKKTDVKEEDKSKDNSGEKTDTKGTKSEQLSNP

**Q.** With `CCCC(=O)[O-].[Na+]` [Sodium butyrate, reference compound] as the molecule, how does the pIC50 (COX-2) read?
**A.** 2.57

**Q.** And the pIC50 (HDAC7)?
**A.** 3.52

**Q.** And the pIC50 (HDAC2)?
**A.** 3.40

**Q.** What about the “inhibition of HDAC6” value (HDAC6) of the same molecule?
**A.** no inhibition

Reference: US20260041620A1, “NOVEL AMINO ACID BASED SALTS, COMPOSITIONS AND METHODS FOR TREATING SKIN AND IMPROVING SKIN REJUVENATION AND LONGEVITY” (Sytheon Ltd, priority 2023, published 2026)
